Source: article PMC4445002, “Efficient inhibition of tumor angiogenesis and growth by a synthetic peptide blocking S100A4-methionine aminopeptidase 2 interaction” (Molecular Therapy. Methods & Clinical Development, 2015)

Assays:
NMIIA in MSS31 cells = test: NMIIA filament assembly and S100A4-NMIIA colocalization by immunofluorescence; assay type: cell-based, mouse; details: atelocollagen complex, 5 μg/well, 18 hours
Description: Figure 6 Stimulation of NMIIA phosphorylation and filament assembly by the NBD peptide. MSS31 cells incubated with atelocollagen alone or the peptide/atelocollagen complexes were subjected to western blot analysis and immunofluorescent staining. (a) Western blot analysis of NMIIA phosphorylation. Total cellular proteins were subjected to immunoblot analysis. The band intensity of p-NMIIA relative to that of total NMIIA was measured using ImageJ software and normalized to control cells. (b) NMIIA assembly. MSS31 cells were simultaneously incubated with rabbit polyclonal anti-S100A4 antibody and mouse monoclonal anti-NMIIA antibody followed by Alexa Fluor 488-conjugated goat antirabbit IgG and Alexa Fluor 594-conjugated goat antimouse IgG. Nuclei were stained with DAPI. Scale bars: 50 μm. (c) Blockade of S100A4-NMIIA interaction by the NBD peptide. MSS31 cells were immunostained as in a. White arrows and yellow arrows indicate colocalized areas and independently localized areas of S100A4 and NMIIA, respectively. Bars: 20 μm. TEXT PRINTED IN THE PICTURE: (a) NBD: p-NMIIA/total NMIIA: 1.78 | (a) CBD: p-NMIIA/total NMIIA: 0.66
MSS31 cells cultured in six-well plates were incubated with 5 μg/well of the NBD or the CBD peptide/atelocollagen complex or atelocollagen alone for 18 hours in Culture Slides (4 wells, BD Falcon) and were washed three times with DPBS and fixed for 10 minutes at 4 °C with 4% formaldehyde in DPBS. After permeabilizing with 0.5% Triton X-100 in DPBS for 4 minutes, the cells were treated with 3% bovine serum albumin in DPBS containing 0.1% glycine for 1 hour to block nonspecific binding sites. After washing with DPBS, the cells were incubated for 1 hour with primary antibodies, rinsed, and then stained with secondary antibodies. The primary antibodies used were polyclonal anti-S100A4, monoclonal anti-NMIIA antibody, monoclonal antivinculin antibody and polyclonal anti-integrin β1 antibody. The secondary antibody was Alexa Fluor 488-conjugated goat antirabbit IgG (Invitrogen) or Alexa Fluor 594-conjugated goat antimouse IgG (Invitrogen). […]

PC-3M-Luc tumors [1] = test: Tumor growth by bioluminescence imaging of PC-3M-Luc xenografts; assay type: in vivo, human tumor in athymic nude mice
Description: Figure 5 Inhibition of tumor angiogenesis and tumor growth of human prostate cancer cells by the NBD peptide. The peptide/atelocollagen was injected into the subcutaneous tumors on day 3 after inoculation of PC-3M-Luc cells. Atelocollagen alone was injected as controls. (a) Microvessel density. Anti-CD31-antibody staining was used to detect angiogenesis. Arrows show microvessels. The images were digitally processed for assessment of angiogenesis. (b) Inhibition of tumor growth by peptide delivery in vivo. Representative bioluminescent images of nude are shown. L, tumors treated with the CBD peptide; R, tumors treated with the NBD peptide. (c) The photon count of the bioluminescence is shown. […]
Animal experiments were performed in compliance with the guidelines of the Institute for Laboratory Animal Research at the National Cancer Center Research Institute. […] Ten minutes later, photons from animal whole bodies were counted using the IVIS imaging system (Caliper Life Sciences) according to the manufacturer’s instructions. Data were analyzed by living image 2.50 software (Caliper Life Sciences).
The peptide/atelocollagen complex was prepared by mixing equal volumes of atelocollagen (0.1% in PBS at pH 7.4) and peptide solution (1 mg/ml) with rotation for 30 minutes at 4 °C. […] Mice were monitored by bioluminescent imaging 14 days after the injection of the peptide/atelocollagen complex. […]

PC-3M-Luc cells = test: PC-3M-Luc cell growth in vitro; assay type: cell-based, human
Description: Caspase3/7 assays was performed with Apo-ONE Caspase-3/7 Assay
Reagent (Promega). No significant changes are observed.
F i g . […]
PC-3M-Luc cells were treated with atelocollagen alone or the NBD peptide/atelocollagen complex in vitro, and their growth rate was monitored.
The values represent cell growth rate relative to that of control cells that is […]
MSS31 cells were incubated with the peptide/atelocollagen complexes.
Isolation of total RNA and subsequent qRT-PCR analysis were carried out as described previously (30). The GAPDH gene was used as an internal control.
(a) Proangiogenic genes in NBD and CBD peptides-treated cells. (b)
Antiangiogenic genes in NBD and CBD peptides-treated cells.

S100A4 in MSS31 cells = test: S100A4 expression in peptide-loaded cells by western blot; assay type: cell-based, mouse; details: atelocollagen complex; Supplementary Figure S3
PC-3M-Luc tumors [2] = test: Tumor angiogenesis (microvessel density, CD31 staining) in PC-3M-Luc xenografts; assay type: in vivo, human tumor in athymic nude mice; details: single intratumoral injection of 100 μg peptide in atelocollagen, tumors dissected three days after
Description: Figure 5 Inhibition of tumor angiogenesis and tumor growth of human prostate cancer cells by the NBD peptide. The peptide/atelocollagen was injected into the subcutaneous tumors on day 3 after inoculation of PC-3M-Luc cells. Atelocollagen alone was injected as controls. (a) Microvessel density. Anti-CD31-antibody staining was used to detect angiogenesis. Arrows show microvessels. The images were digitally processed for assessment of angiogenesis. (b) Inhibition of tumor growth by peptide delivery in vivo. Representative bioluminescent images of nude are shown. L, tumors treated with the CBD peptide; R, tumors treated with the NBD peptide. (c) The photon count of the bioluminescence is shown. Data represent the mean ± SD. The total number of animals is 7 in two independent experiments.
The peptide/atelocollagen complex was prepared by mixing equal volumes of atelocollagen (0.1% in PBS at pH 7.4) and peptide solution (1 mg/ml) with rotation for 30 minutes at 4 °C. The final concentration of atelocollagen was 0.5%. […] Tumor growth was assessed through peptide/atelocollagen complex administration to mice 3 days after the subcutaneous inoculation of PC-3M-Luc cells. Mice were monitored by bioluminescent imaging 14 days after the injection of the peptide/atelocollagen complex. […]

NBD: N-terminal 39 amino acid sequence of SBD, from Arg170 to Ileu208; corresponding to MetAP2 (170–208) (REAAEAHRQVRKYVMSWIKPGMTMIEICEKLEDCSRKLI)
NMIIA filament assembly (NMIIA in MSS31 cells): stimulated filament assembly in MSS31 cells | colocalization of S100A4 and NMIIA (NMIIA in MSS31 cells): the majority of S100A4 was not colocalized with NMIIA filaments | distribution of NMIIA filaments (NMIIA in MSS31 cells): evenly distributed throughout the cells and showed no polarization | vascularity and tumor regression (PC-3M-Luc tumors [1]; single intra-tumor administration, human prostate cancer xenografts (abstract)): significantly reduced vascularity, resulting in tumor regression | tumor growth (PC-3M-Luc tumors [1]; single intratumoral injection of 100 μg peptide in atelocollagen, bioluminescence on day 14, vs atelocollagen alone and CBD, n = 7, P < 0.05): significant inhibition of the growth of tumors | proliferation of PC-3 cells (PC-3M-Luc cells; discussion wording, p53-null cells): did not influence the proliferation of PC-3 cells | growth rate of PC-3M-Luc cells (PC-3M-Luc cells; in vitro, NBD peptide/atelocollagen complex, vs untreated, Supplementary Figure S6): comparable growth rate to that of untreated cells | expression level of S100A4 (S100A4 in MSS31 cells): no apparent change in the expression level of S100A4 | tumor angiogenesis (PC-3M-Luc tumors [2]): severely impaired
